# According to patent US5641774A, “Compounds useful as antiproliferative agents and garft inhibitors” (Agouron Pharmaceuticals, Inc., priority 1995, dated 1997):
# Key:
# CCRF-CEM = assay: In vitro growth inhibition of CCRF-CEM cells, Example 2 (MTT); format: cell-based; details: Homo sapiens, continuous exposure (title: 72-hour; method: 5 days), mean IC50, read-out: IC50 Cell Culture CCRF-CEM
# Procedure: All cultures were maintained at 37° C. 5% air-CO2 in a humidified incubator.
# Stock solutions of the inhibitors were prepared in 10 mM sodium bicarbonate in water and stored in i ml aliquots at -20° C. for cell culture experiments. Cell growth inhibition was measured by a modification of the method of Mosmann, J. Immunol. Methods 65 (1983), 55-63.
# Mid-log phase cells of each cell line were diluted to 18,500 cells/ml in fresh RPMI growth medium (Mediatech, Washington, D.C.) supplemented with dialyzed fetal calf serum (Hyclone Laboratories Inc., Logan, Utah) and then aliquotted into columns 2 through 12 of 96-well microtiter plates. Column 1 was filled with the same volume ([…]) of fresh medium, without cells, for use as a blank. The plates were then placed in a 37° C., 5% air-CO2 incubator. After 1 to 4 hours, plates were removed from the incubator followed by addition of Compound (21) at 10× final concentration, […] in binary dilutions, to columns 12 to 4. […] The extent of metabolized MTT was measured spectrophotometrically at 540 nm on a Molecular Devices Vmax™ kinetic microplate reader. The concentration of drug required to reduce cell growth by 50% as measured by MTT metabolism was determined by interpolation between the O.D. (minus blank) immediately above and below 50% of control O.D. (minus blank). […]
# 6C3HED lymphosarcoma = assay: In vivo antitumor activity, 6C3HED lymphosarcoma implanted subcutaneously in C3H/He female mice
# Procedure: (§1) On day zero, 2 mm^2 trocar fragments of 6C3HED lymphosarcoma were implanted subcutaneously in the axillary region into groups of six C3H/He female mice. Starting on day 1, the test compound was administered intraperitoneally in 40% Encapsin given once daily for nine days. Control animals received identical treatment without test compound. The percentage inhibition given in Table 5 below was calculated by comparing the mass of the control tumors (receiving diluent only) on day 11 to those of animals receiving test compound.
# [1] = tested on: C3H/BA mammary adenocarcinoma; assay: In vivo antitumor activity, C3H/BA mammary adenocarcinoma implanted subcutaneously in C3H/He female mice; details: day 14
# Procedure: as §1, with “C3H/BA mammary adenocarcinoma” for “6C3HED lymphosarcoma”, “percentage of” for “percentage”, “inhibition” for “inhibition given in Table 5 below”, “14” for “11”
# GARFT = details: Muggia, New Drugs, Concepts and Results in Cancer Chemotherapy, 1992; cited from earlier work
SMILES,IC50 (CCRF-CEM) [nM],"% Inhibition (tumor mass) (6C3HED lymphosarcoma; 12.5 mg/kg i.p. once daily for nine days, day 11) [%]","% Inhibition (tumor mass) (6C3HED lymphosarcoma; 25 mg/kg i.p. once daily for nine days, day 11) [%]","% Inhibition (tumor mass) (6C3HED lymphosarcoma; 50 mg/kg i.p. once daily for nine days, printed as a word in the % Inhibition column)",% Inhibition (tumor mass) ([1]; 5 mg/kg i.p. once daily for nine days) [%],% Inhibition (tumor mass) ([1]; 10 mg/kg i.p. once daily for nine days) [%],% Inhibition (tumor mass) ([1]; 20 mg/kg i.p. once daily for nine days) [%],GARFT inhibition and antitumor activity (literature) (GARFT)
"Nc1nc2c(c(=O)[nH]1)SC(CCc1ccc(C(=O)N[C@@H](CCC(=O)O)C(=O)O)s1)CN2 (stereo partly drawn) [Compound 21, 4-[2-(2-Amino-4-oxo-4,6,7,8-tetrahydro-3H-pyrimido[5,4-6][1,4]thiazin-6-yl)-ethyl]-2,5-thienoylamino-L-glutamic acid]",4.3,100,100,toxic,16,84,100,–
"Nc1nc2c(c(=O)[nH]1)CC(CCc1ccc(C(=O)N[C@@H](CCC(=O)O)C(=O)O)cc1)CN2 (some centres unmarked) [5,10-dideazatetrahydrofolic acid]",–,–,–,–,–,–,–,"specific tight binding inhibitor of GARFT, 5,10-dideazatetrahydrofolic acid, has been reported to show antitumor activity"
